For 3 compounds, IC50 results are on record in patent US20260285816A1, “Piperazinyl-Modified Quinazolinyl-Aryl Urea Derivative, And Preparation Method And Use Thereof” (Guangxi Normal University, priority 2025, published 2026).

Common to all, as to type: cell-based, human
Assay [1] concerns embryonic lung fibroblasts (WI-38). Kind of assay: CCK-8 anti-proliferative assay, normal cells WI-38. To be noted: read-out: Anti-proliferative activity (IC50 ± standard deviation) WI-38. The source says: The obtained quinazolinyl-aryl urea derivatives were screened for compounds with optimal activity using the following method. All cell lines employed in this experiment were of human origin, including: bladder cancer cells: J82, UM-UC-3, T24, 5637, pancreatic cancer cells: BxPC-3, PANC-1, osteosarcoma cells: 143B, MG-63, cervical cancer cells: HeLa, breast cancer cells: MCF-7, NSCLC cells: A549, hepatoblastoma cells: Hep G2, and ovarian cancer cells: SK-OV-3, as well as normal cell lines: immortalized ureteral epithelial cells (SV-HUC-1), embryonic lung fibroblasts (WI-38).
(§1) Experimental Procedure for Anti-Proliferative Activity Evaluation: The CCK-8 assay was employed. Cells in logarithmic growth phase were harvested, adjusted to appropriate density, and uniformly seeded into 96-well plates using a multichannel pipette (180 μL cell suspension containing complete medium per well, 5,000 cells/well). Blank control wells (containing basal medium, CCK-8 solution, and DMSO only) were set. Cells were incubated at 37° C. under 5% CO2. After 70% confluency was reached, test compounds (target compounds/positive controls) were added at final concentrations of 1, 2, 4, 6, 8, 12, 16, 24, and 30 μM (3 repeated wells per concentration). Compounds were pre-dissolved in DMSO, sterilized, and diluted with medium before adding 20 μL/well. After co-incubation for designated durations, 10 μL CCK-8 solution was added per well followed by 1-4 h incubation (different cells have different incubation times). The reaction was terminated, and OD (optical density) values at 450 nm were measured using a microplate reader. Inhibition rates were calculated as: (ODcontrol−ODtreatment)/ODcontrol×100%. Median inhibitory concentrations (IC50 values) were derived using Origin v8.0 software.
In general terms: Formazan colour is commonly taken as a measure of viable cells.

Assay [2] has as its system HeLa cells. Description: CCK-8 anti-proliferative assay, HeLa. Particulars: co-incubated 48 h, read-out: Anti-proliferative activity (IC50 ± standard deviation) HeLa. As to the method: (§2) The obtained quinazolinyl-aryl urea derivatives were screened for compounds with optimal activity using the following method.
as §1, with “The reaction was terminated, and OD (optical density) values at 450 nm were measured using a microplate reader.” left out

The subject of assay [3] is PANC-1 cells. Description: CCK-8 anti-proliferative assay, PANC-1. Particulars: co-incubated 48 h, read-out: Anti-proliferative activity (IC50 ± standard deviation) PANC-1. Summed up:
(§3)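 Growth inhibition was measured by CCK-8 in human cells seeded at 5,000 per well and treated at 70% confluency. Compound exposure spanned 1, 2, 4, 6, 8, 12, 16, 24 and 30 μM for designated durations at 37° C. Percent inhibition against vehicle control at OD 450 nm yielded median inhibitory concentrations.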

Assay [4] has as its system Hep G2 cells. Kind of assay: CCK-8 anti-proliferative assay, Hep G2. Particulars: co-incubated 48 h, read-out: Anti-proliferative activity (IC50 ± standard deviation) Hep G2. Summed up: as §3
The test system of assay [5] is SK-OV-3 cells. Description: CCK-8 anti-proliferative assay, SK-OV-3. To be noted: co-incubated 48 h, read-out: Anti-proliferative activity (IC50 ± standard deviation) SK-OV-3. Summed up: (§4)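 Anti-proliferative effect is measured by CCK-8 after compound exposure at nine final concentrations between 1 and 30 μM. Treatment starts once seeded cells (5,000/well) reach 70% confluency at 37° C., 5% CO2.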

In assay [6] the test system is 5637 cells. Kind of assay: CCK-8 anti-proliferative assay, 5637. To be noted: co-incubated 48 h, read-out: Anti-proliferative activity (IC50 ± standard deviation) 5637. Summed up: as §4
For assay [7], the system named is UM-UC-3 cells. Description: CCK-8 anti-proliferative assay, UM-UC-3. Particulars: co-incubated 48 h, read-out: Anti-proliferative activity (IC50 ± standard deviation) UM-UC-3. Summed up: as §4
In assay [8] the test system is A549 cells. Description: CCK-8 anti-proliferative assay, A549. To be noted: co-incubated 48 h, read-out: Anti-proliferative activity (IC50 ± standard deviation) A549. Summed up:
as §4

In assay [9] the test system is MG-63 cells. Description: CCK-8 anti-proliferative assay, MG-63. To be noted: co-incubated 48 h, read-out: Anti-proliferative activity (IC50 ± standard deviation) MG-63. Summed up: as §3
Assay [10] relates to T24 cells. Description: CCK-8 anti-proliferative assay, T24. Particulars: co-incubated 48 h, read-out: Anti-proliferative activity (IC50 ± standard deviation) T24. Summed up: as §3
Assay [11] has as its system 143B cells. Description: CCK-8 anti-proliferative assay, 143B. Particulars: co-incubated 48 h, read-out: Anti-proliferative activity (IC50 ± standard deviation) 143B. Summed up: as §3
Assay [12] has as its system BxPC-3 cells. Kind of assay: CCK-8 anti-proliferative assay, BxPC-3. Particulars: co-incubated 48 h, read-out: Anti-proliferative activity (IC50 ± standard deviation) BxPC-3. Summed up:
as §3

Assay [13] deals with J82 cells. Description: CCK-8 anti-proliferative assay, J82. Particulars: co-incubated 48 h, read-out: Anti-proliferative activity (IC50 ± standard deviation) J82. As to the method: as §2
as §1, with “The reaction was terminated, and OD (optical density) values at 450 nm were measured using a microplate reader.” left out

The test system of assay [14] is immortalized ureteral epithelial cells (SV-HUC-1). Kind of assay: CCK-8 anti-proliferative assay, normal cells SV-HUC-1. Particulars: normal cells, co-incubated 48 h, read-out: Anti-proliferative activity (IC50 ± standard deviation) SV-HUC-1. The protocol: as §2
as §1, with “The reaction was terminated, and OD (optical density) values at 450 nm were measured using a microplate reader.” left out

In assay [15] the test system is MCF-7 cells. Kind of assay: CCK-8 anti-proliferative assay, MCF-7. To be noted: co-incubated 48 h, read-out: Anti-proliferative activity (IC50 ± standard deviation) MCF-7. Summed up:
as §4

Read-outs that look alike come from different tables or passages of the source.

One may read the IC50 as the concentration at which inhibition is half-maximal. In the case of `CCc1cccc(CC)c1NC(=O)Nc1cccc(CNc2ncnc3cc(OC)c(OCCCCCCN4CCN(CCN5CCOCC5)CC4)cc23)c1` [Compound 8-1h, N-(3-(((7-methoxy-6-((6-(4-(2-morpholinoethyl)piperazin-1-yl)hexyl)oxy)quinazolin-4-yl)amino)methyl)phenyl)-N′-(2,6-diethylphenyl)urea], the IC50 in [1] (Homo sapiens, WI-38, Table 9, co-incubated 48 h) stood at 23.2 ± 0.76 µM; in assay [2] (Homo sapiens, HeLa, Table 8), 8.03 ± 0.62 µM; in assay [3] (Homo sapiens, PANC-1, Table 7), 9.63 ± 0.92 µM; in [4] (Homo sapiens, HepG2, Table 8) it was 4.67 ± 0.38 µM; in assay [5] (Homo sapiens, SK-OV-3, Table 9) it was 6.19 ± 0.44 µM; in [6] (Homo sapiens, Table 6) it was 5.41 ± 0.36 µM. The IC50 in [7] (Homo sapiens, UMUC3, Table 6) was 8.74 ± 0.52 µM; in [8] (Homo sapiens, A549, Table 8), 12.3 ± 0.84 µM; in [9] (Homo sapiens, MG-63, Table 7), 4.92 ± 0.46 µM; in [10] (Homo sapiens, T-24, Table 6), 6.89 ± 0.48 µM; in assay [11] (Homo sapiens, 143B, Table 7) it was 4.46 ± 0.24 µM; in assay [12] (Homo sapiens, BXPC-3, Table 7), 7.61 ± 0.76 µM. Further, the half-inhibitory concentration (IC50) in assay [13] (Homo sapiens, J82, Table 6) came out at 5.64 ± 0.39 µM; in assay [14] (Homo sapiens, SV-HUC1, Table 9), 17.8 ± 1.59 µM; in [15] (Homo sapiens, MCF7, Table 8), 8.49 ± 0.88 µM.

Consider `COc1cc2ncnc(NCc3cccc(NC(=O)Nc4ccccc4Cl)c3)c2cc1OCCCCCCN1CCC(CN2CCN(c3ccccn3)CC2)CC1` [Compound 8-2o, N-(3-(((7-methoxy-6-((6-(4-((4-(pyridin-2-yl)piperazin-1-yl)methyl)piperidin-1-yl)hexyl)oxy)quinazolin-4-yl)amino)methyl)phenyl)-N′-(2-chlorophenyl)urea], for which the IC50 was 12.7 ± 0.89 µM in assay [1] (Homo sapiens, WI-38, Table 13, co-incubated 48 h); 13.7 ± 1.29 µM in assay [2] (Homo sapiens, HeLa, Table 12); more than 30 µM in [3] (Homo sapiens, PANC-1, Table 11); 16 ± 0.96 µM in assay [4] (Homo sapiens, HepG2, Table 12); 11.9 ± 0.94 µM in assay [5] (Homo sapiens, SK-OV-3, Table 12); 12.4 ± 0.89 µM in [6] (Homo sapiens, Table 10). Moreover, the IC50 in assay [7] (Homo sapiens, UMUC3, Table 10) was determined as 15.9 ± 0.95 µM; in [8] (Homo sapiens, A549, Table 13), 27.2 ± 2.04 µM; in assay [9] (Homo sapiens, MG-63, Table 11), 9.92 ± 0.82 µM; in assay [10] (Homo sapiens, T-24, Table 10) it was 7.93 ± 0.22 µM; in assay [11] (Homo sapiens, 143B, Table 11), 13.8 ± 0.82 µM; in assay [12] (Homo sapiens, BXPC-3, Table 11), 22.4 ± 1.27 µM. Moreover, the IC50 came out at 16.7 ± 1.52 µM in assay [13] (Homo sapiens, J82, Table 10); 16.2 ± 0.84 µM in assay [14] (Homo sapiens, SV-HUC1, Table 13); 16.2 ± 1.07 µM in [15] (Homo sapiens, MCF7, Table 12).

For `COc1cc2ncnc(NCc3cccc(NC(=O)Nc4ccccc4)c3)c2cc1OCCCCCCN1CCN(CCN2CCOCC2)CC1` [Compound 8-1a, N-(3-(((7-methoxy-6-((6-(4-(2-morpholinoethyl)piperazin-1-yl)hexyl)oxy)quinazolin-4-yl)a-mino)methyl)phenyl)-N′-phenylurea], the IC50 in assay [1] (Table 9, co-incubated 48 h) is 25.9 ± 2.74 µM; in assay [2] (Table 8), more than 30 µM; in assay [3] (Table 7) it was more than 30 µM; in assay [4] (Table 8), more than 30 µM; in assay [5] (Table 9), 28.1 ± 1.72 µM; in [6] (Table 6), 26.4 ± 1.63 µM. Also, the IC50 is more than 30 µM in [7] (Table 6); more than 30 µM in assay [8] (Table 8); 27.3 ± 1.51 µM in assay [9] (Table 7); more than 30 µM in assay [10] (Table 6); 18.7 ± 1.63 µM in [11] (Table 7); 15.7 ± 0.78 µM in assay [12] (Table 7). For the same compound, the IC50 in assay [13] (Table 6), in assay [14] (Table 9) and in assay [15] (Table 8) was more than 30 µM each time.
